From PubChem BioAssay AID179 (DTP/NCI, 2004)
Several values for one entry are separate records, joined by “and”; a condition that tells them apart may be missing. Equal entries are not always repeated. Activity calls are given as the source filed them.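 Rule for the calls: active = compounds giving half or more protection of infected cells from virus-caused growth loss, again on retest; inactive = the rest.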

System: CEM cells HIV-1 protection, formazan growth assay
Assay: NCI AIDS Antiviral Assay
Conditions: for IC50: measured here: growth of uninfected CEM cells
In short: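 Protection of CEM cells against HIV-1 measured as cell growth via soluble formazan read-out, with five concentrations tested on both infected and uninfected cells; failure to protect may reflect toxicity.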

Compound	EC50	IC50	outcome
COc1ccc(/C=C/C(=O)Oc2ccccc2OC)cc1	> 200 µM	0.398 µM	
CC(C)[Si]1(C(C)C)OCC2OC(n3c(C(=O)c4ccccc4)cc(=O)[nH]c3=O)CC2O[Si](C(C)C)(C(C)C)O1 (centres undefined)	> 200 µM	9.12 µM	
Cn1c(=O)c2c(nc(C[N+]3([O-])CCOCC3)n2C)n(C)c1=O	> 83.2 µM	> 83.2 µM	
CCOC(=O)NC(=O)c1cn(CCN2CCN(C(=O)CCCCCCCCCCNc3ncnc4nc[nH]c34)CC2)c(=O)[nH]c1=O			inactive
CC1OC(OCC2OC(Oc3c(-c4ccc(O)cc4)oc4cc(O)cc(O)c4c3=O)C(OC3OCC(O)(CO)C3O)C(O)C2O)C(O)C(O)C1O (centres undefined)	> 347 µM	> 347 µM	
O=C1C(O)=C(O)C(=O)C(O)=C1O	> 200 µM	> 200 µM	
CC1(C)c2ccccc2N2C(c3ccccc3)=NOC21C (centres undefined)	> 25.7 µM	> 25.7 µM	
O=c1[nH]c2ccccc2nc1/C=C/n1c(=S)[nH]c2ccccc21	> 200 µM	> 200 µM	
CCCCCC(/C=C/C1CCC(=O)C1CC#C[Si](C)(C)C)OCc1ccccc1 (centres undefined)	> 200 µM	27.5 µM	
C=CCn1c2c(c3ccccc3c1=O)C(=O)c1ccccc1-2	> 91.2 µM	> 91.2 µM	
CC(CCN1CCN(CCC(C)CC(C)(C)C)S1(=O)=O)CC(C)(C)C (centres undefined)			inactive
CC1(C)C2CCC(=O)C1C(OCc1ccccc1)C2 (centres undefined)	> 200 µM	95.5 µM	
CN1C(=S)Nc2ncn(C)c2S1(=O)=O	> 81.3 µM	> 81.3 µM	
CCOC(=O)c1ccc(Nc2cnc3ccc(C(F)(F)F)cc3n2)cc1	> 200 µM	10.7 µM	
CCN(CC)CCC(=O)c1ccc(C)cc1	> 6170 µM	331 µM	
Cc1n[n+](CC(=O)c2ccccc2)c2sc(N)nn12	> 200 µM	132 µM	
CN1c2ccccc2C(=O)NC12CCN(CCCC(=O)c1ccc(F)cc1)CC2	> 200 µM	> 100 µM	
CC(C)=C1CC(C)(C)N=C1CCC1=NC(C)(C)CC1=C(C)C	> 50.1 µM	28.2 µM	
C#CCOCC12C=CC(O1)C1C(=O)N(C)C(=O)C12 (centres undefined)	> 200 µM	74.1 µM and 182 µM	
c1cc(N(CCn2cccn2)CCn2cccn2)cc(N(CCn2cccn2)CCn2cccn2)c1			inactive
c1ccc(C2ON2CCCN2OC2c2ccccc2)cc1 (centres undefined)	> 200 µM	> 200 µM	
Ic1ccccc1SSc1ccccc1I	> 200 µM	8.71 µM	
O=C(C1CC2CCN1CC2)N1CCN(C(=O)C2CC3CCN2CC3)CC1 (centres undefined)	> 200 µM	> 200 µM	

Compound	EC50	IC50	outcome
Cc1ccccc1SCc1nc2ccccc2c(C)[n+]1[O-]	21.9 µM	102 µM	
CC(=O)OC1C(C)OC(OC2[C@@H]3C=CO[C@@H](OC4OC(CO)C(O)C(O)C4O)[C@@H]3[C@@]3(CO)O[C@@H]23)C(OC(=O)/C=C/c2ccccc2)C1OC(=O)/C=C/c1ccccc1 (some centres undefined)	> 21.9 µM	> 21.9 µM	
CCC1CC2CN3CCc4c([nH]c5ccc(OC)cc45)C(COC(=O)c4ccc(OC)c(OC)c4)(C2)C13 (centres undefined)			inactive
COc1cc2c(cc1OC)C(CCc1ccc(Cl)cc1)N(C)CC2 (centres undefined)	> 200 µM	91.2 µM	
COC(=O)c1ccccc1NCc1cc(O)ccc1O	> 200 µM	30.9 µM	
CC[C@@]12C=CC(=S)N(CCSc3ccccc3)[C@@H]1c1c(n(S(=O)(=O)c3ccc(OC)cc3)c3ccccc13)CC2	> 126 µM	> 126 µM	
O=C(CCN1CCCCC1)Nc1ccc2c(c1)C(=O)c1ccc(NC(=O)CCN3CCCCC3)cc1C2=O	> 200 µM	1.86 µM	
CC1(C)CC2=C(Sc3ccccc3N2)C(=O)C1C(=O)C(=O)Nc1cc(Cl)ccc1Cl (centres undefined)	> 148 µM	64.6 µM	
CC(=O)N1C(=O)C2(NCCCN2)c2ccccc21	> 40.7 µM	> 40.7 µM	
COc1ccc(C(=O)/C=C/c2ccc(OCC#N)cc2)cc1	> 200 µM	15.8 µM	
C=CCCCN1C(=O)CCC1=O			inactive
COC(=O)C1C(O)C(C)C(O)C(C)/C=C\C=C(C)C(=O)Nc2c(C)c(OC(C)=O)c3c(c2O)C(=O)C(C)=C2OCOC(=C23)C(C)=CC(C)(O)C(O)C(C)C1O (centres undefined)	> 324 µM	117 µM and 162 µM	
COc1ccc(/C=C2\N=C(SC)N(CN3CCCCC3)C2=O)cc1	> 200 µM	> 200 µM	
CC1(C)OC2OC(COC(=O)c3ccc(C#N)cc3)C3OC(C)(C)OC3C2O1 (centres undefined)			inactive
O=S(=O)(c1ccccc1)c1cccc2c1NCCC2	21.9 µM	95.5 µM	
NCC#CCNCCCN1CC1	> 200 µM	> 200 µM	
CCN(CC)CC(=O)Nc1cc(Cl)ccc1C	> 200 µM	> 200 µM	
NC(=O)NNC(O)(C(F)(F)F)C(F)(F)F	> 200 µM	> 200 µM	
O=Cc1ccccc1OCCOc1cc(OCCOc2ccccc2C=O)c(OCCOc2ccccc2C=O)cc1OCCOc1ccccc1C=O	> 1.41 µM	> 1.41 µM	
O=[As]O			inactive
O=[N+]([O-])c1ccc2nc(Nc3ccccc3)c(Nc3ccccc3)nc2c1			inactive
CCCCCCCc1cc(OC(=O)c2c(C)cc(OC)cc2O)cc(O)c1C(=O)O	> 162 µM	83.2 µM	
O=Nc1c(O)cc(Nc2ccc(Br)cc2)c2ccccc12	> 200 µM	39.8 µM	

Compound	EC50	IC50	outcome
O=C1/C(=C/c2ccc3c(c2)OCO3)CCC/C1=C\c1ccc2c(c1)OCO2	> 7.59 µM	> 7.59 µM	
Cc1cccc2c1C/C(=C\c1cccc(C)c1C(=O)O)C2=O			inactive
CC12CCC(O)CC1=CCC1C2CCC2(C)C1CC1=CC(C#N)C(=O)NC12O (centres undefined)	> 49 µM	28.8 µM	
CC(=O)CC(O)(C(F)(F)Cl)C(F)(F)Cl			inactive
CC(C)NC(=O)N(Nc1ccccc1)C(C)(C)C	> 200 µM	110 µM	
Nc1ncc(C[P+](c2ccccc2)(c2ccccc2)c2ccccc2)c(N)n1	> 200 µM	> 200 µM	
COC1/C=C\OC2(C)Oc3c(C)c(O)c4c(O)c(c(/C=N\N5CCCC5)c(O)c4c3C2=O)NC(=O)/C(C)=C\C=C/C(C)C(O)C(C)C(O)C(C)C(OC(C)=O)C1C (centres undefined)			inactive
Cn1c2c(c(=O)[nH]c1=O)OCN(Cc1ccccc1)C2	> 251 µM	29.5 µM	
CC1=N/C(=C\c2ccccc2Br)C(=O)O1	> 97.7 µM	> 97.7 µM	
Cc1c(C(=O)c2ccccc2C(=O)O)c2ccccc2n1C			inactive
O=C1NC2OCC(O)C(O)C2O1 (centres undefined)	> 200 µM	> 200 µM	
O=C1CCCCC1C1(O)C(=O)Nc2cc(F)ccc21 (centres undefined)	> 955 µM	178 µM	
CC(C)OP(=O)(OC(C)C)c1ccc2c(c1)OCCOCCOCCOCCO2	> 200 µM	> 200 µM	
CCOC(=O)c1ccc(CS(=O)(=O)c2ccccc2C(=O)OCC)cc1	> 95.5 µM	> 95.5 µM	
O=C1CCCC(=O)NNC(=O)Nc2ccc(cc2)Cc2ccc(cc2)NC(=O)NN1	> 30.9 µM	> 30.9 µM	
O=C(/C=C/c1ccc(Cl)c(Cl)c1)c1ccccc1Cl	> 2.4 µM	> 2.4 µM	
OC(CN(CCCl)CCCl)C(O)C(O)C(O)CN(CCCl)CCCl (centres undefined)			inactive
CC(=O)N(O)C(C)=O	> 2140 µM	1780 µM	
O=C(Nc1nc(=S)[nH][nH]1)C(=O)C(C(=O)c1ccc2ccccc2c1)C1OC(=O)c2ccccc21 (centres undefined)	> 55 µM	25.7 µM	
NC(=S)N/N=C(\CCC(=O)Nc1ccccc1[N+](=O)[O-])CC(=O)c1ccco1	> 234 µM	> 234 µM	
Cc1cc(=O)[nH]c(NN2C(Cl)C(=O)C2c2ccc(Cl)cc2)n1 (centres undefined)	> 55 µM	4.68 µM	
O=NNc1ccc(S(=O)(=O)c2ccc(NN=O)cc2)cc1			inactive
CCOC(=O)c1nc2cc(F)cc(F)c2[nH]c1=O	> 200 µM	162 µM	

Compound	EC50	IC50	outcome
C/C(=N\OC(=O)Nc1ccccc1)c1ccccc1	> 200 µM	132 µM	
CCCc1cc(=O)oc2c(C=O)c(O)cc(O)c12	> 200 µM	63.1 µM	
O=[N+]([O-])c1ccc(/C=c2\sc3scc(-c4ccc([N+](=O)[O-])cc4)[n+]3\c2=C/c2ccc([N+](=O)[O-])cc2)cc1	> 200 µM	97.7 µM	
CC(=O)OCC(OC(C)=O)C(OC(C)=O)C(Cn1c(=O)cc(C)c2ccc(C)c(C)c21)OC(C)=O (centres undefined)	> 200 µM	> 200 µM	
CC(C)(C)C#CI1OC(=O)c2ccccc21	> 200 µM	2.14 µM	
COc1cc(/C=C2\C=Cc3ccccc32)ccc1N(C)C	> 36.3 µM	24 µM	
CC1=CC(c2ccccc2)OP1(=O)c1ccccc1 (centres undefined)	> 200 µM	> 200 µM	
CC1CC(C)C2=NOS3=C2C1=NO3 (centres undefined)	> 200 µM	> 100 µM	
O=C1NC(=O)C(CCC(=O)c2cccc3ccccc23)C(=O)N1	> 60.3 µM	> 60.3 µM	
O=c1cc(N2CCNCC2)nc2ccccn12	> 200 µM	> 200 µM	
C/C(=C\C=C\C(C)C)C1CCC(C)(NC=O)CC1 (centres undefined)			inactive
CCOC(=O)/C(C#N)=C/c1ccccc1[N+](=O)[O-]	> 275 µM	46.8 µM	
Cc1ccc2c(c1)[nH]c1cc(C(F)(F)F)ccc1[p+]2=O (centres undefined)	> 200 µM	26.3 µM	
c1ccc(-c2c3c(nc4c2CC[C@H]4NC2=NCCN2)[C@@H](NC2=NCCN2)CC3)cc1	> 200 µM	> 200 µM	
CCN(CC)c1cc2oc(=O)cc(C)c2cc1NC(=O)c1ccccc1	> 45.7 µM	2.51 µM	
O=C1/C(=C\c2ccc(Br)cc2)CCCc2ccccc21	> 200 µM	22.4 µM	
NNCCc1n[nH]c(=O)n1N	> 200 µM	> 200 µM	
CN1CCC(=O)/C(=C/c2ccccc2)C1			inactive
O=C(/C=C\c1cccc2ccccc12)c1ccc(F)cc1	> 7.24 µM	> 7.24 µM	
COC(=O)c1cc(OC(C)=O)c2c(OC)ccc(OC)c2c1			inactive
O=C(OC[C@H]1OCC(=O)C2(OC(=O)c3ccccc3)C3C=CC(C3)C12)c1ccccc1 (some centres undefined)			inactive
CC1c2c(cc(=O)n(Cc3ccccc3)c2O)C(=O)N1C (centres undefined)	> 126 µM	112 µM	
